Source: patent publication US20120270237A9, “METHODS FOR THE IDENTIFICATION OF KINASE INTERACTING MOLECULES AND FOR THE PURIFICATION OF KINASE PROTEINS” (Cellzone AG, priority 2009, published 2012)

Columns and labels:
Experiment in all cases: Kinobeads competition binding, HeLa Placenta lysate mix
Parameters in all cases: endogenous in cells
Conditions in all cases: 10 μM free compound
NEK3 = target: T1, NEK3 (Homo sapiens, UniProt P51956)
T1 sequence (P51956 1-506): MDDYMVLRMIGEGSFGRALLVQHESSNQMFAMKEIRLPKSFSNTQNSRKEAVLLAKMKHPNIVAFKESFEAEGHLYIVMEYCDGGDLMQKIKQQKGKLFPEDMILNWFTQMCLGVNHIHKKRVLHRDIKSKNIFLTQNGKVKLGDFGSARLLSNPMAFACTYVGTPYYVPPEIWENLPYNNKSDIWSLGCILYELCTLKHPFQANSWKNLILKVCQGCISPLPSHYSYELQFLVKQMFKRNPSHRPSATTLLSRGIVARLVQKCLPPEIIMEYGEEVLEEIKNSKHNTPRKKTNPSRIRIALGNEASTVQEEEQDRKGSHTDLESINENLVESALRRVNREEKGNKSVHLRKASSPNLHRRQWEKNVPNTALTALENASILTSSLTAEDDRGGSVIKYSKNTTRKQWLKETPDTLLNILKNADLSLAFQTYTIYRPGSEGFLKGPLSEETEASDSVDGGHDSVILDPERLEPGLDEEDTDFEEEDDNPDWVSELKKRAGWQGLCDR
Method in brief: (§1)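 Two lysate aliquots, one given 10 μM compound and one DMSO, are each captured on compound-derivatized beads. Eluates are gel-separated, trypsinized, iTRAQ-labeled and combined for tandem MS quantification.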

CDC2 = CDC2 (Homo sapiens, UniProt P06493)
Method in brief: as §1

MAP3K4 = MAP3K4 (Homo sapiens, UniProt Q9Y6R4)
Method in brief: as §1

PIP5K2C = target: T2, PIP5K2C (Homo sapiens, UniProt Q8TBX8)
T2 sequence (Q8TBX8 1-421): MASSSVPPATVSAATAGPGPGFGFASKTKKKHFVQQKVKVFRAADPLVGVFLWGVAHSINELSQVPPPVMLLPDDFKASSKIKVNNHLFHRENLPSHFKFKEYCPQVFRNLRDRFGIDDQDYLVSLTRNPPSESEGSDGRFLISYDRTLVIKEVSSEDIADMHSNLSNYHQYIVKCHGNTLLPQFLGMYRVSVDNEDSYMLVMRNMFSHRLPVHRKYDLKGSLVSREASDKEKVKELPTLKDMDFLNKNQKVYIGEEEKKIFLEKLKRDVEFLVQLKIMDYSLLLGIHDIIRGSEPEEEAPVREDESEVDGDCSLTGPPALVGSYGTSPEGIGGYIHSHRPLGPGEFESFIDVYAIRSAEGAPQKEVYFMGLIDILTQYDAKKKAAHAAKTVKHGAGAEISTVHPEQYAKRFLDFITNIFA
Method in brief: as §1

FER = FER (Homo sapiens, UniProt P16591)
Method in brief: as §1

MARK2 = MARK2 (Homo sapiens, UniProt Q7KZI7)
Method in brief: as §1

PKD3 = target: T3, PKD3 (Homo sapiens, UniProt O94806)
T3 sequence (O94806 1-890): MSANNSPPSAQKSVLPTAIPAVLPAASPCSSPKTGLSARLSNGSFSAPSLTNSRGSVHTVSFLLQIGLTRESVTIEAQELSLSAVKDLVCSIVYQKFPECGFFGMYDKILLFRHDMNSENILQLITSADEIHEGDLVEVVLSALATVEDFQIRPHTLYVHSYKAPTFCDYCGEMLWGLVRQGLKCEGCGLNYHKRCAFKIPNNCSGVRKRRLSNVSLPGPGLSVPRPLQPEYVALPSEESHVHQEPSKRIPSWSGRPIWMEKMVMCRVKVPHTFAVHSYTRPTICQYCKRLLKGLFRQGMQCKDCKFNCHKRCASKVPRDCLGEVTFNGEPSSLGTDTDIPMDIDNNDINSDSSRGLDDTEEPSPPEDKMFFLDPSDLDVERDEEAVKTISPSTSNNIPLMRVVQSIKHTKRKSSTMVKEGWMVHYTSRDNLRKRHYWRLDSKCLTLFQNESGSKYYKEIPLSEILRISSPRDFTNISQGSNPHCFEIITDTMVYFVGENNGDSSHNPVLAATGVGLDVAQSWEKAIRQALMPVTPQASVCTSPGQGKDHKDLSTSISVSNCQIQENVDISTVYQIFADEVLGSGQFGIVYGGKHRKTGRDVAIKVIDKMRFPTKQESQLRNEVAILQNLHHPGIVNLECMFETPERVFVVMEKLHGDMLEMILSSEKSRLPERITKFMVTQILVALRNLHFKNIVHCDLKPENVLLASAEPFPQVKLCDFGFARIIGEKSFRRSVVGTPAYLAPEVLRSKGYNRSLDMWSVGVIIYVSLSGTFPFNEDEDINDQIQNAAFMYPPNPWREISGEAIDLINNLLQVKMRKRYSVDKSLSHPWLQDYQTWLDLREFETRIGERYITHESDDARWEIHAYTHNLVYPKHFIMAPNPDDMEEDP
Method in brief: as §1

CaMK2g = CaMK2g (Homo sapiens, UniProt Q13555)
Method in brief: as §1

GSK3B = GSK3B (Homo sapiens, UniProt P49841)
Method in brief: as §1

AMPKa1 = AMPKa1 (Homo sapiens, UniProt Q13131)
Method in brief: as §1

MSK2 = MSK2 (Homo sapiens, UniProt O75676)
Method in brief: as §1

JNK2 = JNK2 (Homo sapiens, UniProt P45984)
Method in brief: as §1

Chain of MSK2 (O75676 whole entry): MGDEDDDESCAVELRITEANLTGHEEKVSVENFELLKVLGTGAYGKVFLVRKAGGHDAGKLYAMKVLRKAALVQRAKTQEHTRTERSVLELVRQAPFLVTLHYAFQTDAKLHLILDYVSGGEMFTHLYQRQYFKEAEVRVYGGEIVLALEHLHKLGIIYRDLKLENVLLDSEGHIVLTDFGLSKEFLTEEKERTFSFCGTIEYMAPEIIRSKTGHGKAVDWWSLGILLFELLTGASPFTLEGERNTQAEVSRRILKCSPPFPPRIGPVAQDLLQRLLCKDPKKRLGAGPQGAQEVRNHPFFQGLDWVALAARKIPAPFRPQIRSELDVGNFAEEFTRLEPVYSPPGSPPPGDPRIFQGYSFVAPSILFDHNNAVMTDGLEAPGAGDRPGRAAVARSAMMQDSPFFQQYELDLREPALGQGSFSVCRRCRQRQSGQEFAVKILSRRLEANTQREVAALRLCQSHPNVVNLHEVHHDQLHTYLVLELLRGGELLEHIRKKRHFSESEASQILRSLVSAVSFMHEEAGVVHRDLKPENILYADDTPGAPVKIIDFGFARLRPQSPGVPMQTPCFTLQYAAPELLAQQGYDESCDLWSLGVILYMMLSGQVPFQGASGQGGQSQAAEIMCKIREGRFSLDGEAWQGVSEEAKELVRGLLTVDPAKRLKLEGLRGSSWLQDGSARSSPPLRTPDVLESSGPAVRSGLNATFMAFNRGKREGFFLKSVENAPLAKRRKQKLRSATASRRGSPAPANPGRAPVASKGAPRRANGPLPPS
Chain of CDC2 (P06493 whole entry): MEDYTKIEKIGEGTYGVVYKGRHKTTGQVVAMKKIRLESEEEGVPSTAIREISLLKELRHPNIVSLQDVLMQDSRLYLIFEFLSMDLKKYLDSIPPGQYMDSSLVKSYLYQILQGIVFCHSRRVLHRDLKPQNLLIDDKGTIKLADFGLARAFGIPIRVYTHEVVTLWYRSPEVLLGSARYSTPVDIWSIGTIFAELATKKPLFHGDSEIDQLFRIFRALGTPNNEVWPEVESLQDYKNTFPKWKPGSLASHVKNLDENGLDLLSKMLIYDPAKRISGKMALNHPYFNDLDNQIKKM
Chain of CaMK2g (Q13555 whole entry): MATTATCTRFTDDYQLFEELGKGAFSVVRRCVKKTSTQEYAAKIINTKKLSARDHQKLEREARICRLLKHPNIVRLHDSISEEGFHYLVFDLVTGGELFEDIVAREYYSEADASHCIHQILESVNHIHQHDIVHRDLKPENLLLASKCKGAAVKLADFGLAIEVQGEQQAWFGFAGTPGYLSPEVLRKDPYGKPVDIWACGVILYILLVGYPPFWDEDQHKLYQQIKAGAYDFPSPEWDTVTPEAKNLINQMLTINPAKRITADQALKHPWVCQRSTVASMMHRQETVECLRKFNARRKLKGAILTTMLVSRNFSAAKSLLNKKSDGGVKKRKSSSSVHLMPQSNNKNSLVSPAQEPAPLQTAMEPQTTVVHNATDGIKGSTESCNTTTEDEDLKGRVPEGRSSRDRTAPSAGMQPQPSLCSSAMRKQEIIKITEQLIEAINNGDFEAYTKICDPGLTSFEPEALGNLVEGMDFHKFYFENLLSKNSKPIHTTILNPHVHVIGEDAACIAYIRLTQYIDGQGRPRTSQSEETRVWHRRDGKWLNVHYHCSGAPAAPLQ
Chain of FER (P16591 whole entry): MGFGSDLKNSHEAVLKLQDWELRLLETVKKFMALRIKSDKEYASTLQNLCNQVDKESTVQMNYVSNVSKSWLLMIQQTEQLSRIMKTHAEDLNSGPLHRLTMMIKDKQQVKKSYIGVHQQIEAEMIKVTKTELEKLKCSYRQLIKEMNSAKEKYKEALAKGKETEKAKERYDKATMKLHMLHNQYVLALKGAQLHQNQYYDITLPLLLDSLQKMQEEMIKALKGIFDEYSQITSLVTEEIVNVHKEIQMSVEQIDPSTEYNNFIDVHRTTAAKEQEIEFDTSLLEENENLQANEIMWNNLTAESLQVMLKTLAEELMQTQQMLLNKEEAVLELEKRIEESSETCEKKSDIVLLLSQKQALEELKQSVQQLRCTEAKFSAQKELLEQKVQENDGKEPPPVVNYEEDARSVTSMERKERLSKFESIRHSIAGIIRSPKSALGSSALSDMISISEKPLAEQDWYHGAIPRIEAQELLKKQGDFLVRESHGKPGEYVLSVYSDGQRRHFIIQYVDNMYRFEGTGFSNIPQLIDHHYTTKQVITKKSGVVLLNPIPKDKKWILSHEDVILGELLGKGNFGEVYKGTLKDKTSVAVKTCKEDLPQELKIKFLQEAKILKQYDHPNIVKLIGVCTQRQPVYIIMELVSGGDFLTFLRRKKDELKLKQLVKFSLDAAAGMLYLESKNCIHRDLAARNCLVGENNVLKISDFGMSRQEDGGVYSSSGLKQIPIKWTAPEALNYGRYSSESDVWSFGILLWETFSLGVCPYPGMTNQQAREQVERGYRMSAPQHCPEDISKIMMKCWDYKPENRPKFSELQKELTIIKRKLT
Chain of MARK2 (Q7KZI7 whole entry): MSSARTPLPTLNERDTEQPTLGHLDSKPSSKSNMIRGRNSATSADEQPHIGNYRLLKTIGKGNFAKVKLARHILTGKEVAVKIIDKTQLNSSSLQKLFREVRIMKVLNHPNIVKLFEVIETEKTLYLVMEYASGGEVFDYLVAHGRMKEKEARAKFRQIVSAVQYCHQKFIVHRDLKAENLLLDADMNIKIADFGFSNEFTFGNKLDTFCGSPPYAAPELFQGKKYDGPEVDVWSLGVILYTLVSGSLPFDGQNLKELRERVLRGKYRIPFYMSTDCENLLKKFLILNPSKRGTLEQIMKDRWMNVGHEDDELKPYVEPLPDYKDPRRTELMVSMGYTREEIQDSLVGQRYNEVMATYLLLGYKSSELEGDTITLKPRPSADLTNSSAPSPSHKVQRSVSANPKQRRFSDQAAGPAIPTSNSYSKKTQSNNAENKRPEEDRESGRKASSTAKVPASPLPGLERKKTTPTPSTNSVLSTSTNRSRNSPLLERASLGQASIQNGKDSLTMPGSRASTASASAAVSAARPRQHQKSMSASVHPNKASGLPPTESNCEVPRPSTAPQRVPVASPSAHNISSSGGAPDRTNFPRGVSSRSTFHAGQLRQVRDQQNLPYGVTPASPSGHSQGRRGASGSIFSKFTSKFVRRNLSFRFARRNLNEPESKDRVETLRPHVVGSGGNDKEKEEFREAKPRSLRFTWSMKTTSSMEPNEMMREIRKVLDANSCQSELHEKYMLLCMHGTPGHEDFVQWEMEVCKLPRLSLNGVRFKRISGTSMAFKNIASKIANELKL
Chain of MAP3K4 (Q9Y6R4 whole entry): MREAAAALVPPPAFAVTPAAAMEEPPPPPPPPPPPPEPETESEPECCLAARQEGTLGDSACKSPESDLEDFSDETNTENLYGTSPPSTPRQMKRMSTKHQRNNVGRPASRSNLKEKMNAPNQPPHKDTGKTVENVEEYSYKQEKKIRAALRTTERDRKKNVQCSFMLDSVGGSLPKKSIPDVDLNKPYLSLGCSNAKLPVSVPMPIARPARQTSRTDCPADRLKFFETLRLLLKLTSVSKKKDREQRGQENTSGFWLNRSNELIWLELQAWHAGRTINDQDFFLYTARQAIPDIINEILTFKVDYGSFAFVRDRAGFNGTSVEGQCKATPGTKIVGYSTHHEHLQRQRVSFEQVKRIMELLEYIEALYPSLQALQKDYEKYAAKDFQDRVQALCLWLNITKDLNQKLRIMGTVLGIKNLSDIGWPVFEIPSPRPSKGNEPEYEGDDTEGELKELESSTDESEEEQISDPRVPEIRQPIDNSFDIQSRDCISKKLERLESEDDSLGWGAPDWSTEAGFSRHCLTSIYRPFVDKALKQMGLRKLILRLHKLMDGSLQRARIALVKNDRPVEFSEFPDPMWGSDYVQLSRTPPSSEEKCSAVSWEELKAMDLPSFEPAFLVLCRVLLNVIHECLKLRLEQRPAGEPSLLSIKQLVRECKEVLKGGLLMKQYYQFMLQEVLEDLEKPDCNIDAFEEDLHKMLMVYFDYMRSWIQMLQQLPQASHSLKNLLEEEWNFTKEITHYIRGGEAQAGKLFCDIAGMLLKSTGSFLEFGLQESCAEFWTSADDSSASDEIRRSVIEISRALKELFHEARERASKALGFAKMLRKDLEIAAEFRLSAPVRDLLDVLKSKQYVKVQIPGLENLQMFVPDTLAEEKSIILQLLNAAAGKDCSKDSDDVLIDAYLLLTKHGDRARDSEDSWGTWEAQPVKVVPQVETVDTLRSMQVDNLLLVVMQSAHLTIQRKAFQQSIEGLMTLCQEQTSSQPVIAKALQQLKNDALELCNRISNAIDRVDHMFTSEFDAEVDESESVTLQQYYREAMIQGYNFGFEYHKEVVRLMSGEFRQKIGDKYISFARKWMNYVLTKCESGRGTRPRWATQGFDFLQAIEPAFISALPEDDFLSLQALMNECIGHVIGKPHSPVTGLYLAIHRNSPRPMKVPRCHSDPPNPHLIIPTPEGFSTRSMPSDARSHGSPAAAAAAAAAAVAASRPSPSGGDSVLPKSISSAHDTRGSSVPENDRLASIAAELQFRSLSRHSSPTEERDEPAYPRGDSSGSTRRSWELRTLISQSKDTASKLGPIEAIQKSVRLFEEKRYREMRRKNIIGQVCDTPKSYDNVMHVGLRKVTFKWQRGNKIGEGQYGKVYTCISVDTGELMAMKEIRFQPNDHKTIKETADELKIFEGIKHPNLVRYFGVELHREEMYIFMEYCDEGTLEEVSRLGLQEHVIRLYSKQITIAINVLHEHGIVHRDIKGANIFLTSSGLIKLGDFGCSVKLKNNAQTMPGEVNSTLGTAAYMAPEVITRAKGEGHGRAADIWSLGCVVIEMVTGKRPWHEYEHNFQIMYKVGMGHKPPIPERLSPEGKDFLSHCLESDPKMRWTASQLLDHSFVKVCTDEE

In the case of `CS(=O)(=O)Nc1ccccc1Nc1nc(Nc2cccc(OCCN)c2)ncc1Cl` [CZC31326, N-(2-(2-(3-(2-aminoethoxy)phenylamino)-5-chloropyrimidin-4-ylamino)phenyl)methanesulfonamide], the inhibition at 10 µM (NEK3) is reported as 94.8%, the inhibition at 10 µM (CDC2) is reported as 93.4% and the inhibition at 10 µM (MAP3K4) is reported as 92.2%. It also gave an inhibition at 10 µM (PIP5K2C) of 95.4%, an inhibition at 10 µM (FER) of 95.3% and an inhibition at 10 µM (MARK2) of 93.7%. For the same compound, the inhibition at 10 µM (PKD3) was 95.7%, the inhibition at 10 µM (CaMK2g) was 84.8% and the inhibition at 10 µM (GSK3B) was 93.3%. It also gave an inhibition at 10 µM (AMPKa1) of 94.9%, an inhibition at 10 µM (MSK2) of 95.3% and a Competition % (JNK2) of 83.1%.
